# Data reported in PMC3598812, “Evaluation of Anti-Hyperalgesic and Analgesic Effects of Two Benzodiazepines in Human Experimental Pain: A Randomized Placebo-Controlled Study” (PLoS ONE, 2013).
# Legend:
# Assay type in all cases: in vivo, human
# healthy male volunteers [1] = experiment: Intramuscular single electrical stimulation pain threshold (tibialis anterior); settings: mean (SD)
# Description: (§1) Electrical stimulation was performed through electrodes placed distal to the lateral malleolus. A 25 ms, train-of-five, 1 ms, square-wave impulse (perceived as one stimulus), was delivered by a computer-controlled constant current stimulator (Digitimer DS7A, Neurospec, Letchworth Garden City, UK). The current intensity was increased from 1 mA in steps of 0.5 mA until a pain sensation was evoked.
# (§2) A needle was placed in the tibialis anterior muscle, 14 cm distal from the caudal end of the patella and 20 mm in depth. The same single and repeated stimulation patterns and the same procedure described for cutaneous stimulation were used.
# healthy male volunteers [2] = experiment: Cutaneous single electrical stimulation pain threshold; settings: mean (SD)
# Description: as §1
# (§3) Three assessments were made and the mean of these 3 measurements was used for the data analysis.
# healthy male volunteers [3] = experiment: Cutaneous repeated (5 stimuli) electrical stimulation, temporal summation threshold; settings: mean (SD)
# Source text: The stimulus burst used for single stimulus was repeated 5 times at 2 Hz, at constant intensity. The current intensity of the 5 stimuli was increased from 1 mA in steps of 0.5 mA until the subjects felt pain during the last 2–3 of the 5 stimuli (indicating temporal summation).
# as §3
# healthy male volunteers [4] = experiment: Intramuscular repeated (20 stimuli) electrical stimulation, VAS; design: AUC of VAS during 20 intramuscular electrical stimuli: unit not given beside the values; settings: mean (SD); for Maximal VAS during 20 intramuscular electrical stimuli: VAS 0-10
# Description: The stimulus burst used for single stimulus was repeated for a train of 20 pulses at 2 Hz, at an intensity corresponding to the temporal summation threshold. During this 10 s stimulation, pain intensity was continuously rated by the subject with an electronic VAS, and the area under the curve (AUC) was computed. Additionally, the maximal VAS during stimulation was recorded.
# as §2
# healthy male volunteers [5] = experiment: Pain rating (VAS) after graded von Frey hair stimulation in the capsaicin hyperalgesic area
# Description: Additionally, mechanical pain sensitivity was assessed using a set of seven weighted pinprick stimuli to obtain a stimulus-response function. The test was applied 1 cm inside the outer border of the pinprick hyperalgesic area, using a set of 7 graded von Frey hair mechanical stimulators with fixed stimulus intensities (custom-made at Aalborg University, Denmark). The flat contact area of the stimulators has a 0.2 mm diameter, and the 7 stimulators exert forces of 8, 16, 32, 64, 128, 256 and 512 mN. The order of stimulation was defined randomly by computer. The stimulators were applied at a rate of 2 s on/2 s off. Subjects were asked to give a pain rating for each stimulus on a 10 cm VAS. Two assessments for each stimulation were made and the mean of these 2 measurements was used for the data analysis.
# healthy male volunteers [6] = experiment: Cuff algometry (tourniquet cuff on the leg, VAS-time AUC); design: AUC of VAS during cuff algometry: unit not given beside the values; settings: for AUC of VAS during cuff algometry: mean (SD)
# Source text: A tourniquet cuff was applied to the middle of the leg, at the level of the heads of the gastrocnemius and soleus muscle. The cuff was applied at the side contralateral to the side of electrical stimulation in order not to interfere with the positioning of the intramuscular electrodes. During stimulation, the volunteer rated the pain intensity on an electronic VAS scale. The cuff was inflated with compressed air until VAS 6 was reached. The maximum allowed inflating pressure was 200 kPa. The pressure was maintained for 10 min or until the subjects rated the pain as intolerable. The area under the curve VAS-time was computed. For those subjects who felt intolerable pain before 10 min, the time when the cuff was deflated was recorded and VAS 10 was extrapolated until 10 min. Additionally, the maximal VAS during inflation was recorded.
# [7] = baseline before medication, per drug session
# [8] = single oral dose (clobazam 20 mg, clonazepam 1 mg, tolterodine 1 mg), 120 min after medication
# [9] = single oral dose (clobazam 20 mg, clonazepam 1 mg, tolterodine 1 mg), after flumazenil 0.2 mg iv
# [10] = single oral dose (clobazam 20 mg, clonazepam 1 mg, tolterodine 1 mg), 30 min after medication
# [11] = single oral dose (clobazam 20 mg, clonazepam 1 mg, tolterodine 1 mg), 60 min after medication
# [12] = single oral dose (clobazam 20 mg, clonazepam 1 mg, tolterodine 1 mg), 90 min after medication
# [13] = VAS 0-10, single oral dose (clobazam 20 mg, clonazepam 1 mg, tolterodine 1 mg), 30 min after medication, mean (SD)
# [14] = VAS 0-10, single oral dose (clobazam 20 mg, clonazepam 1 mg, tolterodine 1 mg), 60 min after medication, mean (SD)
# [15] = VAS 0-10, single oral dose (clobazam 20 mg, clonazepam 1 mg, tolterodine 1 mg), 90 min after medication, mean (SD)
# [16] = VAS 0-10, single oral dose (clobazam 20 mg, clonazepam 1 mg, tolterodine 1 mg), 120 min after medication, mean (SD)
# [17] = VAS 0-10, single oral dose (clobazam 20 mg, clonazepam 1 mg, tolterodine 1 mg), after flumazenil 0.2 mg iv, mean (SD)
smiles,measurement,setting,value
CN1C(=O)CC(=O)N(c2ccccc2)c2cc(Cl)ccc21 [Clobazam],Pain threshold after single intramuscular electrical stimulation,healthy male volunteers [1]; [7],1.7 (1.2) mA
same,Pain threshold after single intramuscular electrical stimulation,healthy male volunteers [1]; [8],3.1 (4.6) mA
same,Pain threshold after single intramuscular electrical stimulation,healthy male volunteers [1]; [9],2.5 (2.1) mA
same,Pain threshold after single cutaneous electrical stimulation,healthy male volunteers [2]; [7],10.0 (2.9) mA
same,Pain threshold after single cutaneous electrical stimulation,healthy male volunteers [2]; [10],10.3 (3.6) mA
same,Pain threshold after single cutaneous electrical stimulation,healthy male volunteers [2]; [11],10.2 (3.8) mA
same,Pain threshold after single cutaneous electrical stimulation,healthy male volunteers [2]; [12],11.2 (3.3) mA
same,Pain threshold after single cutaneous electrical stimulation,healthy male volunteers [2]; [8],12.2 (3.9) mA
same,Pain threshold after single cutaneous electrical stimulation,healthy male volunteers [2]; [9],12.0 (4.3) mA
same,Pain threshold after 5 cutaneous electrical stimuli,healthy male volunteers [3]; [7],8.3 (3.0) mA
same,Pain threshold after 5 cutaneous electrical stimuli,healthy male volunteers [3]; [10],8.7 (3.4) mA
same,Pain threshold after 5 cutaneous electrical stimuli,healthy male volunteers [3]; [11],8.7 (3.4) mA
same,Pain threshold after 5 cutaneous electrical stimuli,healthy male volunteers [3]; [12],9.3 (2.9) mA
same,Pain threshold after 5 cutaneous electrical stimuli,healthy male volunteers [3]; [8],9.9 (3.3) mA
same,Pain threshold after 5 cutaneous electrical stimuli,healthy male volunteers [3]; [9],9.7 (3.3) mA
same,Maximal VAS during 20 intramuscular electrical stimuli,healthy male volunteers [4]; [7],4.2 (1.5)
same,Maximal VAS during 20 intramuscular electrical stimuli,healthy male volunteers [4]; [8],4.5 (2.5)
same,Maximal VAS during 20 intramuscular electrical stimuli,healthy male volunteers [4]; [9],4.0 (1.9)
same,AUC of VAS during 20 intramuscular electrical stimuli,healthy male volunteers [4]; [7],284 (149)
same,AUC of VAS during 20 intramuscular electrical stimuli,healthy male volunteers [4]; [8],309 (188)
same,AUC of VAS during 20 intramuscular electrical stimuli,healthy male volunteers [4]; [9],292 (169)
same,VAS after von Frey hair 8 mN,healthy male volunteers [5]; [13],1.1 (1.2)
same,VAS after von Frey hair 16 mN,healthy male volunteers [5]; [13],2.0 (2.1)
same,VAS after von Frey hair 32 mN,healthy male volunteers [5]; [13],2.0 (1.6)
same,VAS after von Frey hair 64 mN,healthy male volunteers [5]; [13],2.3 (2.0)
same,VAS after von Frey hair 128 mN,healthy male volunteers [5]; [13],2.9 (2.0)
same,VAS after von Frey hair 256 mN,healthy male volunteers [5]; [13],3.3(2.3)
same,VAS after von Frey hair 512 mN,healthy male volunteers [5]; [13],4.5 (2.5)
same,VAS after von Frey hair 8 mN,healthy male volunteers [5]; [14],1.9 (3.3)
same,VAS after von Frey hair 16 mN,healthy male volunteers [5]; [14],2.3 (3.2)
same,VAS after von Frey hair 32 mN,healthy male volunteers [5]; [14],2.4 (2.8)
same,VAS after von Frey hair 64 mN,healthy male volunteers [5]; [14],2.5 (2.0)
same,VAS after von Frey hair 128 mN,healthy male volunteers [5]; [14],3.4 (2.7)
same,VAS after von Frey hair 256 mN,healthy male volunteers [5]; [14],3.7 (2.6)
same,VAS after von Frey hair 512 mN,healthy male volunteers [5]; [14],4.8 (2.8)
same,VAS after von Frey hair 8 mN,healthy male volunteers [5]; [15],1.2 (1.4)
same,VAS after von Frey hair 16 mN,healthy male volunteers [5]; [15],1.4 (1.6)
same,VAS after von Frey hair 32 mN,healthy male volunteers [5]; [15],2.1 (2.2)
same,VAS after von Frey hair 64 mN,healthy male volunteers [5]; [15],2.1 (1.9)
same,VAS after von Frey hair 128 mN,healthy male volunteers [5]; [15],3.5 (2.3)
same,VAS after von Frey hair 256 mN,healthy male volunteers [5]; [15],3.9 (2.5)
same,VAS after von Frey hair 512 mN,healthy male volunteers [5]; [15],4.9 (2.6)
same,VAS after von Frey hair 8 mN,healthy male volunteers [5]; [16],1.3 (1.4)
same,VAS after von Frey hair 16 mN,healthy male volunteers [5]; [16],1.3 (1.5)
same,VAS after von Frey hair 32 mN,healthy male volunteers [5]; [16],1.9 (1.9)
same,VAS after von Frey hair 64 mN,healthy male volunteers [5]; [16],2.7 (2.7)
same,VAS after von Frey hair 128 mN,healthy male volunteers [5]; [16],3.0 (2.6)
same,VAS after von Frey hair 256 mN,healthy male volunteers [5]; [16],3.8 (2.6)
same,VAS after von Frey hair 512 mN,healthy male volunteers [5]; [16],4.7 (2.7)
same,VAS after von Frey hair 8 mN,healthy male volunteers [5]; [17],1.1 (1.1)
same,VAS after von Frey hair 16 mN,healthy male volunteers [5]; [17],1.3 (1.1)
same,VAS after von Frey hair 32 mN,healthy male volunteers [5]; [17],1.9 (1.9)
same,VAS after von Frey hair 64 mN,healthy male volunteers [5]; [17],2.2 (1.7)
same,VAS after von Frey hair 128 mN,healthy male volunteers [5]; [17],2.9 (2.1)
same,VAS after von Frey hair 256 mN,healthy male volunteers [5]; [17],3.9 (2.2)
same,VAS after von Frey hair 512 mN,healthy male volunteers [5]; [17],5.1 (2.5)
same,VAS after von Frey hair 512 mN,"healthy male volunteers [5]; subgroup analysis (n = 8), 30 minutes, mean",3.2
same,VAS after von Frey hair 512 mN,"healthy male volunteers [5]; subgroup analysis (n = 8), 120 minutes, mean",5.1
same,AUC of VAS during cuff algometry,healthy male volunteers [6]; [7],3446 (539)
same,"Cuff algometry, overview of peak value or subgroup analysis","healthy male volunteers [6]; overview table, compared to tolterodine","Time factor significant, favouring clobazam and clonazepam compared to tolterodine"
same,AUC of VAS during cuff algometry,healthy male volunteers [6]; [8],3001 (831)
same,AUC of VAS during cuff algometry,healthy male volunteers [6]; [9],2932 (566)
